The text below walks through data of paper PMC9856672, “SGC-CAMKK2-1: A Chemical Probe for CAMKK2” (Cells, 2023).

One series has as its target CAMKK2 (Homo sapiens, UniProt Q96RR4). Set-up: purified recombinant CAMKK2 (100 pM) was incubated in assay buffer; method as in earlier work. Particulars: reported CAMKK2 inhibitors; ref 47 (Price et al.); cited from earlier work.
A short description of series [1]: Single dose IP pharmacokinetic study in mice. Type of series: in vivo, CD-1 mice. Particulars: mouse, 10 mg/kg IP, plasma at 0.5, 1, 3, 8 h. As to the method:
CD-1 mice with weights 23–25 g were purchased from Charles River Laboratories.
The animal experiments were performed at Alliance Pharma (Malvern, PA, USA) in accordance with the guide for the care and use of laboratory animals. Alliance Pharma is accredited by the Association for Assessment and Accreditation of Laboratory Animal Care (AAALAC).
The test compounds were dissolved in DMSO and then diluted to the appropriate concentration with the vehicle. For formulation we targeted the minimal amount of DMSO that could be used in combination with a formulation composed of 0.5% HPMC/0.2% Polysorbate 80. […] Blood was collected at t = 0.5, 1, 3, and 8 h and immediately spun for 3 min, the plasma was collected, and compound levels were quantified with HPLC/MS. The raw data are available in the Supplemental Information.
With the probe molecule having favorable selectivity and potency in vitro and in a cellular context, we next wanted to determine its suitability for in vivo experiments. SGC-CAMKK2-1 (5) was progressed to a single dose mouse intraperitoneal (I.P) experiment.

Series [2] relates to p-AMPK(Thr172) in C4-2 cells. Kind of series: Western blot of p-AMPK(Thr172) in C4-2 prostate cancer cells. Format: cell-based. Particulars: C4-2, 24 h, 24 h treatment, three individual experiments, read-out: IC50 for decrease of p-AMPK(Thr172) normalized to total AMPK. On the procedure:
C4-2 cells were plated in 6-well plates in IMEM medium containing 0.5% FBS. After 72 h, the cells were then treated with the compounds for 24 h before the media was aspirated and cells were washed twice in ice-cold PBS. Cells were lysed using RIPA buffer containing phosphatase and protease inhibitor cocktail while rotating for 30 min at 4 °C. In each lane, 30 μg/well of protein lysate was loaded into a 10% SDS-PAGE gel and run for 1 h and 30 min. Gels were then transferred overnight in a TRIS-glycine/methanol transfer buffer onto a PVDF membrane at 4 °C. Membranes were blocked, incubated with primary overnight at 4 °C, washed, incubated with secondary at room temperature for 1 h, washed, and then developed on an Azure Biosystems C-600 imager. Densitometry was performed using ImageJ. Total-AMPK was normalized to GAPDH and then p-AMPK was normalized to normalized total-AMPK. Normalized p-AMPK was used to calculate IC50 in GraphPad Prism 9.5.0. Primary antibodies used were from Cell Signaling (Danvers, MA, USA; Phospho-AMPKα (Thr172) (40H9) Rabbit mAb: Cat#: 2535; AMPKα (D5A2) Rabbit mAb Cat#: 5831), BD Bioscience (Franklin Lakes, NJ, USA; CAMKK2 mouse mAb Cat# 610544), and Sigma (St. Louis, MO, USA; GAPDH rabbit pAb: Cat# G9545). Secondary antibody (Goat Anti-Rabbit IgG (H + L)-HRP Conjugate; Cat#:1706515) was from Bio-Rad Laboratories (Hercules, CA, USA).
In this experiment, IC50 was calculated via quantifying changes in p-AMPK(Thr172) normalized to total AMPK levels.

For the compound `CN(C)Cc1ccc(-c2cc3c(-c4ccc(C(N)=O)cc4)ccnc3[nH]2)cc1` [Compound 3], the “pIC50 (CAMKK2)” value on CAMKK2 is reported as 8.5.

In the case of `O=C(O)c1ccc(-c2ccnc(Nc3cccc(-c4ccccc4)c3)n2)cc1` [Compound 4], on CAMKK2, the “pIC50 (CAMKK2)” value is 8.1. As usually defined, the IC50 is the concentration at which inhibition is half-maximal. Regarding `O=C(O)c1ccc2c3c1cccc3c(=O)n1c3ccccc3nc21` [STO-609, reference compound], in series [1], the “plasma concentration / in vivo PK (in words)” value is on record as “considerably higher plasma concentrations than SGC-CAMKK2-1”. Also, the IC50 in series [2] stood at 10.7 µM.
